Data taken from article PMC12555100, “Dextromethorphan Versus Dextrorphan: A Quantitative Comparison of Antitussive Potency Following Separate Administration of Metabolite” (Journal of Clinical Pharmacology, 2025).
≈ marks a conversion by molar mass, not a printed value. Entries after “also recorded” stand apart in the source; their conditions may differ.

Assays:
[1] = system: cough response to citric acid challenge; test: Citric acid cough challenge test, model-independent analysis of antitussive effect; format: in vivo, human; details: for Emax, maximum percentage of cough number reduction, mean: mean of 23 healthy volunteers, change relative to baseline; for Emax, maximum percentage of cough number reduction, mean / Emax, maximum percentage of cough number reduction, median: after 40.5 mg dextromethorphan hydrobromide or 44.6 mg dextrorphan-D-tartrate; for AUEC0‐24 h, mean / AUEC0‐24 h, median: area under percent reduction in cough number vs time 0-24 h; for AUEC0‐24 h, mean / TEmax, time of maximum percentage of reduction in cough number, mean / AUEC0‐24 h, median / TEmax, time of maximum percentage of reduction in cough number, median: healthy volunteers; for TEmax, time of maximum percentage of reduction in cough number, mean / TEmax, time of maximum percentage of reduction in cough number, median: after DEX or DOR administration; for Emax, maximum percentage of cough number reduction, median: median of 23 healthy volunteers; for Emax and TEmax compared between DEX, DOR and placebo arms: model-independent analysis; for Antitussive effect (AUEC0‐24 h) compared between DEX, DOR and placebo arms: model-independent pairwise analysis, Friedman test with Dunn's multiple comparison
Text: The clinical trial has been performed according to the Declaration of Helsinki and was approved by the North Sheffield Research and Ethics Committee (approval number NS98/183). All participants enrolled into the clinical trial have given informed consent. Data were collected from twenty‐three healthy non‐smoker volunteers (12 male) aged 19‐51 years who took part in a double‐blind randomized placebo controlled cross‐over study. […] The exclusion criteria were respiratory tract infection or acute cough within the last 4 weeks, receiving any medication within previous 2 weeks, and any medical condition which may interfere with the study. Preceding the visit day, the volunteer was asked to fast for 8 h, abstain from alcohol, and abstain from caffeinated drinks throughout the study day. Written informed consent was obtained from all volunteers. The study was approved by the […] Research and Ethics Committee. Subjects' cough response to citric acid challenge test was studied on three separate occasions (separated at least 7 days apart) following administration of (i) placebo; (ii) 40.5 mg dextromethorphan hydrobromide; (iii) 44.6 mg of dextrorphan‐D‐tartrate. The order of treatments (placebo, DEX, and DOR) was randomized across participants using a balanced Latin square design to ensure equal distribution of sequence effects. Blood samples for PK analysis were taken periodically (at 0, 1, 2, 3, 4, 5, 6, 8, 10, 12, and 24 h post administration of DEX and DOR).
Details of the cough challenge test were described previously.[24] In summary, cough was produced by five inhalations of 3 mL 10% w/v citric acid (placed in a nebulizing chamber) over 5 min. Prior to randomization, all volunteers underwent a two‐part screening process. Volunteers who coughed between 7 and 14 times following five inhalations of a 10% citric acid solution at the first visit, were considered eligible for further screening. The second visit evaluated both interday and intraday cough response consistency. The acceptable level of variability in cough frequency was established as no more than 20% between separate days and within a single day across three separate measurements. The frequency of cough response was measured at baseline (prior to placebo or drug administration, t = −1 h) and at regular intervals up to 24 h. Cough measurements were obtained at the same time points as blood sampling.
The percent of change in cough number relative to the baseline (t = 0) was plotted against time and the maximum reduction in cough response (Emax) and its […] (TEmax) were determined. The area under the percent of reduction in cough number against time between 0 until 24 h (AUEC0‐24 h) was calculated using the trapezoidal rule. The correlation between AUEC0‐24 h and area under plasma concentration time between zero and 24 h (AUC0‐24 h) of DEX, (endogenously) formed DOR and directly administered DOR was statistically examined using Spearman rank correlation test. The Friedman test (followed by Dunn's multiple comparison) was used to compare the AUC values of DEX and DOR, as well as the AUEC values, between the different arms of the study.

[2] = system: cough response to citric acid challenge; test: PK-PD effect compartment link model of cough response; format: in vivo, human; details: for Between‐subject variability of ke0: PKPD model
Method: Pharmacokinetic/pharmacodynamic analysis (PKPD) of DEX and DOR was conducted using non‐linear mixed effects modelling with Monolix software, 2024R1 (Lixoft SAS, Antony, France). The analysis followed a sequential approach, where the PK parameters of both compounds were estimated initially, and then these were used alongside the cough data to build the PK/PD model. The model components are described below:
The cough response (number of coughs) of the placebo arm of the study was described by the following equation that has been reported in a previous study[27] with some minor modifications: EPlacebo=Baselinecough×scale×k×e^−k×t in which EPlacebo is the placebo effect, BaselineCough is the number of coughs at time (t) zero (before administration of any of the drugs or placebo), scale is the constant of the magnitude of the cough response, and k is the first‐order rate constant for nonlinear suppression of the cough response and return to the baseline. The distribution of all parameters was assumed to be log normal. A constant error model was used to describe intra‐individual variability.
An effect compartment model in which ke0 (DEX) and ke0 (DOR) are the effect‐site equilibration rate constants for DEX and DOR, respectively, was used to link the plasma concentrations of DEX and DOR to the combined effect of the two moieties at the same receptor. This combined effect is described by the following equation: E=EPlacebo×1−Imax×CeDEX/IC50+CeDOR×Pot/IC50^n/1+CeDEX/IC50+CeDOR×Pot/IC50^n in which I max is the maximum antitussive effect, IC50 the concentration of drugs that results in half of the maximum effect, Pot is the relative potency of DOR to DEX and CeDEX and CeDOR are the effect compartment concentrations of DEX and DOR, respectively.[23] Log‐normal distribution model was used to describe the inter‐individual variability of the model parameters and intra‐individual variability was described by a constant error model.

[3] = system: antitussive effect (cough); design: method as in PMID 12848776; details: cited from earlier work
[4] = cited from earlier work
[5] = animal study; cited from earlier work
[6] = population estimate, common parameter of the combined DEX+DOR effect model

SMILES	Emax, maximum percentage of cough number reduction, mean [1]	AUEC0‐24 h, mean [1]	TEmax, time of maximum percentage of reduction in cough number, mean [1]	Emax, maximum percentage of cough number reduction, median [1]	AUEC0‐24 h, median [1]	TEmax, time of maximum percentage of reduction in cough number, median [1]	Emax and TEmax compared between DEX, DOR and placebo arms [1]	Antitussive effect (AUEC0‐24 h) compared between DEX, DOR and placebo arms [1]	Between‐subject variability of ke0 [2]	ke0, transfer rate constant from the central to the effect compartment ([2]; population estimate)	Relative potency of DOR compared to DEX ([3]; modelling of quinidine interaction study, no separate DOR arm)	IC50 ([3]; total concentration of DOR (conjugated with glucuronic acid and unconjugated))	Water solubility [4]	Antitussive activity [5]	Tolerability compared with DEX [5]	Toxicity compared with DEX [5]	Maximum cough inhibition (Imax) ([2]; model-based estimate, as percent)	Relative potency of DOR to DEX ([2]; population estimate, as fraction)	Imax, the maximum antitussive effect (fraction of the baseline) [2, 6]	N, Hill coefficient [2, 6]
COc1ccc2c(c1)[C@]13CCCC[C@@H]1[C@H](C2)N(C)CC3 [DEX, dextromethorphan]	−46%	−299 %hr	3.9 h	−44%	−286 %hr	3.0 h	no significant differences	no significant difference	176 CV%	0.08 h⁻¹	–	–	–	–	–	–	–	–	–	–
CN1CC[C@@]23CCCC[C@@H]2[C@@H]1Cc1ccc(O)cc13 [DOR, dextrorphan]	−45%	−189 %hr	6.3 h	−46%	−170 %hr	5.5 h	no significant differences	no significant difference; also recorded: did not reveal a statistically significant difference; also recorded: failed to show any statistical difference	171 CV%	0.02 h⁻¹	38%	3.2 ng/mL (≈ 0.0124 µM)	> 10 mg/mL	good antitussive activity comparable to that of DEX	better tolerability	lower toxicity	23%	0.26	0.23	2.8
